What was measured:
[1] = test system: HT-29 cells; details: parent NSAID; cited from earlier work
[2] = test system: DU-145 cells; experiment: MTT cell viability assay, DU-145; assay type: cell-based; details: Homo sapiens, DU-145, 48 h, read-out: Cell growth % at 10 µM, DU-145
Procedure: (§1) The cell lines were obtained from the American Type Culture Collection (ATCC). Five tumor cell lines (MDA-MB-231, MCF-7, HCT116, HTB-54, and DU-145) and two non-tumorigenic cells (184B5 and BEAS-2B) were grown in RPMI 1640 medium (Gibco), and the HT-29 tumor cell line was grown in McCoy’s medium. Both mediums were supplemented with 10% fetal bovine serum (FBS; Gibco) and 1% antibiotics (10.00 units/mL penicillin and 10.00 μg/mL streptomycin; Gibco). Cells were preserved in tissue culture flasks at 37 °C and 5% CO2. The culture medium was replaced every three days.
(§2) The effect of each compound on cell viability was tested using the MTT assay. […] Selected compounds were then tested at seven different concentrations (0.5–100 μM) in MCF-7, HCT116, HT-29, HTB-54, 184B5 and BEAS-2B cells. Cells were seeded at 10^4 per well onto flat-bottomed 96-well culture plates. They were treated with either DMSO or increasing concentration of the corresponding compound for 48 h. Then, they were incubated with 20 μL of 3-(4,5-dimethylthiazol-2-yl)-2,5-diphenyltetrazolium bromide (MTT) (2 mg /mL stock; Aldrich) for 2,5 h and analyzed for their ability to generate a purple formazan dye. These formazan crystals were dissolved in 50 μL of DMSO. The absorbance was measured at a wavelength of 550 nm and the ratio of viable cells was calculated.
(§3) Results are expressed as cell viability % at 10 μM. Selectivity index were calculated as the ratio of the IC50 values determined for the non-malignant and the tumor cells in breast (IC50 (184B5)/IC50 (MCF-7)) and lung (IC50 (BEAS-2B)/IC50 (HTB-54)) cell lines. Data were obtained from at least three independent experiments performed in triplicates.

[3] = in vitro; details: for Papp at 20 h, 500 µg/mL: PAMPA; for Pe ± SD: porcine brain lipid, 20 h, 25 °C; for BBB Permeation (Experimental): class from PAMPA-BBB Pe
Procedure: Franz diffusion cells (Microette 8910130, Hanson Research) were employed to perform this assay. The compounds were dissolved in DMSO at 5 mg/mL and diluted to 500 µg/mL with phosphate-buffered saline (PBS)/EtOH (7:3) to make a stock solution. A total of 10 µL of porcine brain lipid (PBL) diluted in dodecane solution (20 mg/mL) was spread onto a PVDF membrane that was placed between the donor and acceptor compartments, forming a sandwich structure. Then, 4.5 mL of PBS/EtOH (7:3) was added to the acceptor compartment and 700 µL of the stock solution was added to the donor cell. […] The concentration of the compound was calculated from the standard curve and expressed as permeability (Pe) by the following formula [84]:Permeability (cm/s): Pe = {−ln [1 − CA(t)/Ceq]}/[A ∗ (1/VD + 1/VA) ∗ t]
A = filter area ([…]), VD = donor cell volume (0.7 mL), VA = acceptor cell volume (4.5 mL), t = incubation time, CA (t) = compound concentration in acceptor cell at time t, CD (t) = compound concentration in donor cell at time t, and Ceq = [CD(t) ∗ VD + […] ∗ VA]/(VD + VA).
Every sample was analyzed at least in duplicate and the data were reported as mean ± SD.

[4] = molecular target: T1, AChE (Rattus norvegicus, UniProt P37136); experiment: AChE inhibition by Ellman's method (rat frontal cortex homogenate); assay type: biochemical
T1 construct: from tissue; host or cells: frontal cortex of male Wistar rats (crude homogenate)
T1 sequence (P37136 32-614): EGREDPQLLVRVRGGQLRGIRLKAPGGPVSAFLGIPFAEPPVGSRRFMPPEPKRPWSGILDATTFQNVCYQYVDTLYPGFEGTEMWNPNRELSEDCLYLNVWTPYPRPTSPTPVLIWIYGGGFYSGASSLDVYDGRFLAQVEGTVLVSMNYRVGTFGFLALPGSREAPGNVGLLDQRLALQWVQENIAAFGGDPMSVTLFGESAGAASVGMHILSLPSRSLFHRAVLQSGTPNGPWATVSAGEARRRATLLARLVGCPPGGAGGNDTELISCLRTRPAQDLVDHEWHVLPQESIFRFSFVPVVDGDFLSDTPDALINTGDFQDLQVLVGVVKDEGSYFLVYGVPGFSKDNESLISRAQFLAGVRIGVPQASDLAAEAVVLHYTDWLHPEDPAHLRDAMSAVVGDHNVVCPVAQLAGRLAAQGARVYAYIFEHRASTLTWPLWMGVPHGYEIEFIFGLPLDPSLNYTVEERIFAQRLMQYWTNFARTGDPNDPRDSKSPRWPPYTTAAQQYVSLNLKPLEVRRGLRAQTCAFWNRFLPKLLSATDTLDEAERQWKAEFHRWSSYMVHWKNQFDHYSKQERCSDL
Procedure: Frontal cortex tissue obtained from male Wistar rats was homogenized in 39 volumes of 75 mM sodium phosphate buffer (pH 7.4). A mixture of 260 μL containing the compounds assessed, acetylthiocholine iodide and 5 μL tissue homogenate was incubated for 8 min. The reaction was then terminated by adding 50 μL 3% (w/v) sodium dodecyl sulphate followed by 50 μL 0.2% (w/v) 5,5′-dithio-bis(2-nitrobenzoic) acid to produce the yellow anion of 5-thio-2-nitro-benzoic-acid. The extent of the color production was measured spectrophotometrically at 405 nm using Multiskan Ex (Thermo Electron Corporation). […] Results are expressed as the mean ± SD and each experiment was repeated three times.

[5] = test system: HT-29 cells; experiment: MTT cell viability assay, HT-29; assay type: cell-based; details: Homo sapiens, HT-29, 10 µM, 48 h, read-out: Cell growth % at 10 µM, HT-29
Procedure: as §1, §2, §3

[6] = test system: HTB-54 cells; experiment: MTT cell viability assay, HTB-54; assay type: cell-based; details: HTB-54; 10 µM, 48 h, MTT; read-out: Cell growth % at 10 µM, HTB-54
Procedure: as §1, §2, §3

[7] = test system: MDA-MB-231 cells; experiment: MTT cell viability assay, MDA-MB-231; assay type: cell-based; details: Homo sapiens, MDA-MB-231, 48 h, read-out: Cell growth % at 10 µM, MDA-MB-231
Procedure: as §1, §2, §3

Structure (SMILES)	IC50 [1] [µM]	viability at 10 µM [2] [%]	stability during the PAMPA-BBB experiment ([3]; observation in words)	IC50 [4] [µM]	inhibition at 1 µM ([4]; at 10^−6 M, Ellman's method) [%]	viability at 10 µM [5] [%]	viability at 10 µM [6] [%]	viability at 10 µM [7] [%]	Papp at 20 h, 500 µg/mL [3] [×10⁻⁶ cm/s]	fold higher Pe compared to galantamine ([3]; PAMPA-BBB) [fold]	Pe ± SD ([3]; PAMPA-BBB) [×10⁻⁶ cm/s]	BBB Permeation (Experimental) [3]	% AChE Inhibition ([4]; at 10^−6 M, Ellman's method) [%]
CC(C)Cc1ccc(C(C)C(=O)O)cc1 (stereo not shown) [Ibuprofen, 2-(4-isobutylphenyl) propanoic acid]	> 50												
C=CC[Se]C(=O)c1ccccc1O [Compound 13a, Se-allyl 2-hydroxybenzoselenoate]		29.5 ± 4.3	signs of degradation	5.2 ± 2.3	51.8 ± 4	88.8 ± 8.6	40.9 ± 4.9	77.1 ± 12.6					
C=CC[Se]C(=O)c1sccc1Cl [Compound 10a, Se-allyl 3-chlorothiophene-2-carboselenoate]		33.4 ± 6.4		2.4 ± 1.2	42.5	61.5 ± 17.6	27.1 ± 11.2	41.3 ± 3.5	38.6 ± 1.3	3	38.63	High (High BBB permeation predicted; Pe (10^−6 cm s^−1) > 4.0)	42.5 ± 6.4
C=CC[Se]C(=O)C12CC3CC(CC(C3)C1)C2 [Compound 1a, Se-allyl adamantane-1-carboselenoate]		> 100			19.3 ± 4.1	91 ± 3.6	72.1 ± 8.1	92.6 ± 12.7					
C#CC[Se]C(=O)c1ccccc1Cl [Compound 3b, Se-prop-2-ynyl 2-chlorobenzoselenoate]		41.6 ± 3.5			23.7 ± 9	81.8 ± 15.2	> 100	93.2 ± 10.2					
C#CC[Se]C(=O)c1cccnc1 [Compound 7b, Se-prop-2-ynyl pyridine-3-carboselenoate]		54.6 ± 4.5			24.9 ± 2.2	> 100	91.4 ± 6.6	91.3 ± 8.3					
COc1ccc2c3c1O[C@H]1C[C@@H](O)C=C[C@@]31CCN(C)C2 [Galantamine, galantamine, reference compound]									12.3 ± 3.1		12.27	High (High BBB permeation predicted; Pe (10^−6 cm s^−1) > 4.0)	
C#CC[Se]C(=O)c1ccccc1Nc1cccc(C)c1C [Compound 18b, Se-prop-2-ynyl 2-(2,3-dimethylphenyl)aminobenzoselenoate]		32.6 ± 4.6			20 ± 2.4	66.5 ± 9.5	62.3 ± 8.3	99 ± 11.2					
C#CC[Se]C(=O)C12CC3CC(CC(C3)C1)C2 [Compound 1b, Se-prop-2-ynyl adamantane-1-carboselenoate]		62.7 ± 7.7			18 ± 7.9	87.9 ± 12.1	86 ± 11.6	71.3 ± 8					
C=CC[Se]C(=O)c1cccnc1Cl [Compound 8a, Se-allyl 2-chloropyridine-3-carboselenoate]		49.5 ± 6.6			6.3 ± 4.1	62.2 ± 16.1	25.8 ± 5.2	37.1 ± 4.7					
C#CC[Se]C(=O)c1ccccc1 [Compound 2b, Se-prop-2-ynyl benzoselenoate]		72.9 ± 13.6			26.9 ± 7.3	78.3 ± 6.9	78.3 ± 11.4	79.3 ± 18.7					
C#CC[Se]C(=O)Cc1c(C)n(C(=O)c2ccc(Cl)cc2)c2ccc(OC)cc12 [Compound 17b, Se-prop-2-ynyl 2-(1-(4-chlorobenzoyl)-5-methoxy-2-methyl-1H-indol-3-yl)ethaneselenoate]		19.2 ± 4			23 ± 6.7	66.3 ± 10.2	85.9 ± 5.1	59.1 ± 11.5					
C#CC[Se]C(=O)c1cccs1 [Compound 9b, Se-prop-2-ynyl thiophene-2-carboselenoate]		22.3 ± 2.7			20.6 ± 2.7	76 ± 13.5	58.9 ± 7.8	70.2 ± 6.9					
C=CC[Se]C(=O)c1ccno1 [Compound 12a, Se-allyl isoxazole-5-carboselenoate]		62.7 ± 4.7			4.2 ± 6.7	70.7 ± 10.7	95.5 ± 5.9	96.8 ± 15.8					
C#CC[Se]C(=O)c1ccno1 [Compound 12b, Se-prop-2-ynyl isoxazole-5-carboselenoate]		95.1 ± 12.3			21.7 ± 7.9	81.3 ± 11.1	97.6 ± 7.1	92.5 ± 15.1					
C=CC[Se]C(=O)CCc1ccccc1 [Compound 6a, Se-allyl 3-phenylpropaneselenoate]		26.9 ± 4.4			18.7 ± 12.4	63.7 ± 12.3	36.3 ± 7	35.9 ± 2.6					

— article PMC9854712 (Antioxidants, 2023)
